ChEMBL document CHEMBL1201862, “PubChem BioAssay data set” (2004)
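Interpolation was linear, between the two tested concentrations surrounding the appropriate level; five concentrations were tested over 48 hours in 96-well plates. The concentration for 50% growth inhibition is given as GI50.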 Activity calls are given as the source filed them. No stated cut-off is given here; in the data, active = GI50 up to about 1.1 µM and inactive = higher.

Key:
Assay in all cases: NCI tumour cell line growth inhibition, 48 h
[1] = test system: A498
[2] = test system: CAKI-1
[3] = test system: SF-539
[4] = test system: BT-549
[5] = test system: SK-OV-3
[6] = test system: PC-3
[7] = test system: 786-0
[8] = test system: SF-295
[9] = test system: U-251
[10] = test system: SNB-75
[11] = test system: COLO 205
[12] = test system: CCRF-CEM
[13] = test system: IGROV-1
[14] = test system: MOLT-4
[15] = test system: MDA-MB-231
[16] = test system: SW-620
[17] = test system: SN12C
[18] = test system: UACC-62
[19] = test system: HCT-116
[20] = test system: OVCAR-4
[21] = test system: UO-31
[22] = test system: EKVX
[23] = test system: RXF 393
[24] = test system: NCI-H23
[25] = test system: OVCAR-3
[26] = test system: K562
[27] = test system: M14
[28] = test system: SK-MEL-5
[29] = test system: LOX IMVI
[30] = test system: UACC-257
[31] = test system: OVCAR-8
[32] = test system: RPMI-8226
[33] = test system: SNB-19
[34] = test system: A549
[35] = test system: SF-268
[36] = test system: KM12
[37] = test system: HOP-92
[38] = test system: SK-MEL-28
[39] = test system: Malme-3M
[40] = test system: OVCAR-5
[41] = test system: HT-29
[42] = test system: NCI-H226
[43] = test system: HCT-15
[44] = test system: Hs-578T
[45] = test system: SR
[46] = test system: MDA-MB-435
[47] = test system: MCF7
[48] = test system: HOP-62
[49] = test system: DU-145
[50] = test system: HCC 2998
[51] = test system: MDA-N
[52] = test system: NCI/ADR-RES
[53] = test system: HL-60
[54] = test system: NCI-H460
[55] = test system: T47D
[56] = test system: SK-MEL-2

Measured: GI50

CCOC(=O)c1cc(Br)c(-c2cc(C)co2)[nH]1
> 100 µM: [43]
inactive: [1] > 100 µM | [2] > 100 µM | [3] > 100 µM | [4] > 100 µM | [5] > 100 µM | [6] > 100 µM | [7] > 100 µM | [8] > 100 µM | [9] > 100 µM | [10] > 100 µM | [11] > 100 µM | [12] > 100 µM | [13] 66.1 µM | [14] 54.6 µM | [15] > 100 µM | [16] > 100 µM | [17] > 100 µM | [18] > 100 µM | [19] > 100 µM | [20] > 100 µM | [21] 66.7 µM | [22] 67 µM | [23] > 100 µM | [24] > 100 µM | [25] > 100 µM | [26] 69.8 µM | [27] > 100 µM | [28] 81.3 µM | [29] > 100 µM | [30] > 100 µM | [31] > 100 µM | [32] > 100 µM | [33] > 100 µM | [34] > 100 µM | [35] > 100 µM | [36] 73.3 µM | [37] > 100 µM | [38] > 100 µM | [39] > 100 µM | [40] > 100 µM | [41] > 100 µM | [42] > 100 µM | [44] 84.5 µM | [45] 31.8 µM | [46] 32.9 µM | [47] > 100 µM | [48] > 100 µM | [49] > 100 µM | [50] > 100 µM | [51] 36.4 µM | [52] > 100 µM | [53] 55.7 µM | [54] > 100 µM | [55] > 100 µM | [56] > 100 µM
